The values below come from ChEMBL document CHEMBL4190186 (Medchemcomm, 2016).

Each structure is given as a SMILES string. Activity calls are given as the source filed them. The rule behind the calls is not given here.

Series [1] concerns LN-18. The experiment in a line: Cytotoxicity against human LN18 cells harboring TP53 mutation assessed as cell death at 20 uM after 48 hrs by MTT assay relative to control. The class given is functional.
The subject of series [2] is NCI-H460. In words: Cytotoxicity against human NCI-H460 cells. The class given is functional, cell-based.
For series [3], the system named is T98G. In words: Cytotoxicity against PTEN/TP53 deficient human T98G cells assessed as cell death at 20 uM after 48 hrs by MTT assay relative to control. The class given is functional. For orientation: Tetrazolium assays rely on reduction of a dye to a coloured formazan, in cell work by metabolically active cells.
The subject of series [4] is LN-18. In words: Cytotoxicity against human LN18 cells harboring TP53 mutation after 48 hrs by MTT assay. The class given is functional, cell-based.
Series [5] relates to T98G. The experiment in a line: Cytotoxicity against PTEN/TP53 deficient human T98G cells after 48 hrs by MTT assay. The class given is functional, cell-based.
Series [6] relates to LN-18. In words: Induction of apoptosis in human LN18 cells harboring TP53 mutation assessed as increase in cleaved caspase-3 expression at 20 uM after 24 to 48 hrs by Western blot analysis. The class given is functional, cell-based. On the technique in general: Immunoblotting shows a protein as a band on a membrane.
Series [7] deals with T98G. The experiment in a line: Induction of apoptosis in PTEN/TP53 deficient human T98G cells assessed as increase in cleaved caspase-3 expression at 20 uM after 24 to 48 hrs by Western blot analysis. The class given is functional, cell-based.
The subject of series [8] is LN-18. The experiment in a line: Induction of apoptosis in human LN18 cells harboring TP53 mutation assessed as increase in cleaved caspase-8 expression at 20 uM after 24 to 48 hrs by Western blot analysis. The class given is functional, cell-based.
The test system of series [9] is T98G. In words: Induction of apoptosis in PTEN/TP53 deficient human T98G cells assessed as increase in cleaved caspase-8 expression at 20 uM after 24 to 48 hrs by Western blot analysis. The class given is functional, cell-based.
Series [10] deals with LN-18. In words: Induction of apoptosis in human LN18 cells harboring TP53 mutation assessed as increase in cleaved caspase-9 expression at 20 uM after 24 to 48 hrs by Western blot analysis. The class given is functional, cell-based.
Series [11] deals with T98G. The experiment in a line: Induction of apoptosis in PTEN/TP53 deficient human T98G cells assessed as increase in cleaved caspase-9 expression at 20 uM after 24 to 48 hrs by Western blot analysis. The class given is functional, cell-based.
Series [12] deals with LN-18. The experiment in a line: Induction of apoptosis in human LN18 cells harboring TP53 mutation assessed as increase in cleaved PARP expression at 20 uM after 24 to 48 hrs by Western blot analysis. The class given is functional, cell-based.
Series [13] deals with T98G. The experiment in a line: Induction of apoptosis in PTEN/TP53 deficient human T98G cells assessed as increase in cleaved PARP expression at 20 uM after 24 to 48 hrs by Western blot analysis. The class given is functional, cell-based.
Series [14] has as its system LN-18. The experiment in a line: Effect on H3K27me3 levels in human LN18 cells harboring TP53 mutation at 20 uM after 24 to 48 hrs by Western blot analysis. The class given is ADME, cell-based. The conditions noted are these: ln-18, 20 µM.
Series [15] has as its system T98G. In words: Effect on H3K27me3 levels in PTEN/TP53 deficient human T98G cells at 20 uM after 24 to 48 hrs by Western blot analysis. The class given is ADME, cell-based.
In series [16] the test system is Astrocyte. The experiment in a line: Cytotoxicity against rat primary cortical astrocytes assessed as reduction in cell viability at 5 to 40 uM after 48 hrs by MTT assay relative to control. The class given is cell-based.

Take `O=C1c2ccccc2C(=O)c2c(-c3ccccc3)nsc21`: the Activity was >50 - 70% in series [1]; >50 - 70% in [3]; “Dose-dependent effect” in [4]; “Dose-dependent effect” in [5]; “Non-Toxic” in series [14]; “Non-Toxic” in series [15]. The Activity in series [16] is on record as above 50%. The IC50 (usually the concentration that inhibits the measured activity by half) in series [2] amounted to 360 nM. In addition, the outcome in series [6], in series [7], in [8], in series [9], in series [10] and in series [11] was inactive. Moreover, the outcome in series [12] and in [13] was inactive.

On to `NNC(=O)/C=C/c1ccc(-c2ccccc2)cc1`, for which the outcome in [1] and in [3] was Active.

As to `Cc1[nH]c2ccccc2c1/C=C/c1ccccc1-c1ccc(/C=C/C(=O)NO)cc1`, the Activity in series [1] was above 70%; in series [3], above 70%; in [4], “Dose-dependent effect”; in [5] it was “Dose-dependent effect”; in series [14], “Non-Toxic”; in series [15] it was “Non-Toxic”. In [16], the Activity result is recorded as “Non-Toxic”. In addition, the result in [6], in [7], in series [8], in [9], in series [10] and in [11] was Active. Also, the result in series [12] and in series [13] was Active.

As for `O=C1/C(=C\c2ccc(-c3ccccc3)cc2)c2ccccc2N1O`, the outcome in series [1] and in series [3] was Active.

With `CN(C)c1nsc2c1C(=O)c1ccccc1C2=O`, the Activity in series [1] was >50 - 70%; in series [3], >50 - 70%; in series [4] it was “Dose-dependent effect”; in [5] it was “Dose-dependent effect”; in series [14], “Non-Toxic”; in series [15], “Non-Toxic”. Moreover, in [2], it took 220 nM to reach half-maximal inhibition (IC50). The result in series [6], in series [7], in series [8], in [9], in [10] and in series [11] was inactive. For the same compound, the outcome in series [12] and in series [13] was inactive.

In the case of `O=C(/C=C/c1ccc(-c2ccccc2)cc1)NO`, the outcome in series [1] and in [3] was Active.

On to `NNC(=O)N/C=C/c1ccc(-c2ccccc2)cc1`, for which the outcome in series [1] and in series [3] was Active.

Regarding `Cc1[nH]c2ccccc2c1/C=C/c1ccccc1-c1ccc(/C=C/C(=O)Nc2cc(-c3ccccc3)ccc2O)cc1`, the outcome in series [1] and in series [3] was Active.

Turning to `O=C1Nc2ccc(Cl)cc2/C1=C/c1ccc(-c2ccccc2)cc1`, the outcome in [1] and in series [3] was Active.

Turning to `O=C1Nc2ccccc2/C1=C/c1ccc(-c2ccccc2)cc1`, the result in series [1] and in series [3] was Active.

`O=C(Nc1ccccc1)Nc1ccc(/C=C2\C(=O)Nc3ccccc32)cc1`: the result in series [1] and in series [3] was inactive.

In the case of `O=C(Nc1ccccc1)Nc1ccc(/C=C2\C(=O)N(O)c3ccccc32)cc1`, the outcome in [1] and in series [3] was inactive.

Take `CON1C(=O)/C(=C\c2ccc(-c3ccccc3)cc2)c2ccccc21`: the outcome in series [1] and in [3] was Active.

`O=C1/C(=C\c2ccc(O)cc2)c2ccccc2N1O`: the outcome in series [1] and in [3] was inactive.

As to `COc1ccc(-c2ccc(/C=C/C(=O)NO)cc2)cc1`, the result in series [1] and in series [3] was Active.

`Nc1nsc2c1C(=O)c1ccccc1C2=O`: the Activity in series [1] and in series [3] was >50 - 70% in each case. Besides, it took 280 nM to reach half-maximal inhibition in [2] (IC50).
